Test results as given in PubChem BioAssay (NCI).
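Five compound concentrations were applied to cells in 96-well plates for 48 hours; endpoints were derived by simple linear interpolation of the resulting dose-response curve. At the TGI there is no net growth.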

Experiments:
Experiment in all cases: NCI-60 cell line screen, 48 h
[1] = system: MOLT-4 leukemia
[2] = system: M14 melanoma
[3] = system: MDA-N
[4] = system: OVCAR-5 ovarian
[5] = system: UO-31 renal
[6] = system: SK-MEL-5 melanoma
[7] = system: NCI/ADR-RES ovarian
[8] = system: SF-295 CNS
[9] = system: HCC-2998 colon
[10] = system: MDA-MB-435
[11] = system: HS 578T breast
[12] = system: A498 renal
[13] = system: NCI-H23 lung
[14] = system: KM12 colon
[15] = system: RXF 393 renal
[16] = system: SNB-75 CNS
[17] = system: SF-539 CNS
[18] = system: A549 NSCLC
[19] = system: DU-145 prostate
[20] = system: NCI-H522 lung
[21] = system: HL-60(TB) leukemia
[22] = system: OVCAR-3 ovarian
[23] = system: CAKI-1 renal
[24] = system: UACC-62 melanoma
[25] = system: UACC-257 melanoma
[26] = system: T-47D breast
[27] = system: RPMI-8226 leukemia
[28] = system: BT-549 breast
[29] = system: OVCAR-4 ovarian
[30] = system: LOX IMVI melanoma
[31] = system: SK-MEL-28 melanoma
[32] = system: SW-620 colon
[33] = system: CCRF-CEM leukemia
[34] = system: SK-MEL-2 melanoma
[35] = system: TK-10 renal
[36] = system: SR leukemia
[37] = system: IGROV1 ovarian
[38] = system: SN12C renal
[39] = system: SNB-19 CNS
[40] = system: NCI-H460 lung
[41] = system: OVCAR-8 ovarian
[42] = system: U251 CNS
[43] = system: MDA-MB-231 breast
[44] = system: HOP-62 NSCLC
[45] = system: EKVX NSCLC
[46] = system: HCT-116 colon
[47] = system: NCI-H226 lung
[48] = system: K-562 leukemia
[49] = system: MALME-3M melanoma
[50] = system: HOP-92 NSCLC
[51] = system: HT29 colon
[52] = system: SF-268 CNS
[53] = system: PC-3 prostate
[54] = system: HCT-15 colon
[55] = system: ACHN renal
[56] = system: 786-0 renal
[57] = system: SK-OV-3 ovarian
[58] = system: COLO 205 colon

Q: With `COC(=O)C1=C(O)C(C(=O)OC)[C@]2(O)[C@H](C(=O)OC)[C@H]1C[C@@H](c1ccccc1OC)[C@H]2C(=O)OC` (stereo partly drawn) as the compound, how does the TGI [1] read?
A: Its TGI is 25.5 µM.

Q: And the TGI [2]?
A: Its TGI is 10.2 µM.

Q: And the TGI [3]?
A: The TGI was 4.79 µM.

Q: And the TGI [4]?
A: Its TGI is 16.4 µM.

Q: What about the TGI [5] of the same compound?
A: Its TGI is 21.6 µM.

Q: What about the TGI [6] of the same compound?
A: The TGI was 13.2 µM.

Q: What about the TGI [7] of the same compound?
A: Its TGI is 8.89 µM.

Q: And the TGI [8]?
A: Its TGI is 25.6 µM.

Q: What about the TGI [9] of the same compound?
A: The TGI was 22.2 µM.

Q: What about the TGI [10] of the same compound?
A: The TGI was 9.79 µM.

Q: What about the TGI [11] of the same compound?
A: Its TGI is 11 µM.

Q: What about the TGI [12] of the same compound?
A: The TGI was 17.4 µM.

Q: And the TGI [13]?
A: The TGI was 14.8 µM.

Q: And the TGI [14]?
A: Its TGI is 21.9 µM.

Q: And the TGI [15]?
A: Its TGI is 20.2 µM.

Q: And the TGI [16]?
A: The TGI was greater than 71.3 µM.

Q: And the TGI [17]?
A: The TGI was greater than 23.7 µM.

Q: And the TGI [18]?
A: Its TGI is 21.7 µM.

Q: What about the TGI [19] of the same compound?
A: The TGI was 26.2 µM.

Q: And the TGI [20]?
A: The TGI was 5 µM.

Q: And the TGI [21]?
A: Its TGI is 10.5 µM.

Q: And the TGI [22]?
A: The TGI was 35.4 µM.

Q: And the TGI [23]?
A: Its TGI is 17.5 µM.

Q: What about the TGI [24] of the same compound?
A: Its TGI is 18.3 µM.

Q: What about the TGI [25] of the same compound?
A: The TGI was greater than 51.6 µM.

Q: What about the TGI [26] of the same compound?
A: Its TGI is greater than 76.1 µM.

Q: What about the TGI [27] of the same compound?
A: Its TGI is 8.82 µM.

Q: What about the TGI [28] of the same compound?
A: Its TGI is 11.2 µM.

Q: And the TGI [29]?
A: The TGI was 31.3 µM.

Q: And the TGI [30]?
A: The TGI was 9.35 µM.

Q: And the TGI [31]?
A: The TGI was 27.1 µM.

Q: And the TGI [32]?
A: The TGI was 19.6 µM.

Q: What about the TGI [33] of the same compound?
A: The TGI was 21.1 µM.

Q: What about the TGI [34] of the same compound?
A: Its TGI is 20.1 µM.

Q: And the TGI [35]?
A: Its TGI is greater than 54.7 µM.

Q: What about the TGI [36] of the same compound?
A: The TGI was 7.04 µM.

Q: What about the TGI [37] of the same compound?
A: The TGI was 11.3 µM.

Q: And the TGI [38]?
A: The TGI was 17.4 µM.

Q: What about the TGI [39] of the same compound?
A: Its TGI is 19.7 µM.

Q: And the TGI [40]?
A: The TGI was greater than 41.8 µM.

Q: And the TGI [41]?
A: The TGI was 11.8 µM.

Q: What about the TGI [42] of the same compound?
A: The TGI was 19.3 µM.

Q: And the TGI [43]?
A: The TGI was 29.7 µM.

Q: And the TGI [44]?
A: Its TGI is 39.1 µM.

Q: What about the TGI [45] of the same compound?
A: The TGI was 29.6 µM.

Q: What about the TGI [46] of the same compound?
A: Its TGI is 12.9 µM.

Q: What about the TGI [47] of the same compound?
A: Its TGI is 20.7 µM.

Q: What about the TGI [48] of the same compound?
A: Its TGI is greater than 38.9 µM.

Q: What about the TGI [49] of the same compound?
A: Its TGI is 13.5 µM.

Q: And the TGI [50]?
A: Its TGI is 15.7 µM.

Q: What about the TGI [51] of the same compound?
A: The TGI was 14.6 µM.

Q: And the TGI [52]?
A: The TGI was 16.5 µM.

Q: And the TGI [53]?
A: The TGI was 20.7 µM.

Q: What about the TGI [54] of the same compound?
A: The TGI was 13.5 µM.

Q: What about the TGI [55] of the same compound?
A: The TGI was 21.3 µM.

Q: And the TGI [56]?
A: The TGI was 20.4 µM.

Q: What about the TGI [57] of the same compound?
A: Its TGI is greater than 50.9 µM.

Q: What about the TGI [58] of the same compound?
A: Its TGI is 13.3 µM.
